Experimental data: the supplement of paper PMC10307832

Key:
Experiment in all cases: relative viability (nuclei count vs DMSO), 5 days (fraction); higher = more cells survive
[1] = tested on: NCI-H23
Method in brief: (§1)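 For relative viability, nuclei counts in treated wells were divided by those in vehicle wells. Lung cancer cell lines had been pin-tool dosed in 1536-well plates the day after seeding and cultured for 5 days, then fixed and stained in one step (final 0.05% Triton X-100, 1% formaldehyde, 1 ug/ml Hoechst) and imaged at 4×. Doses were one drug alone or a fixed anchor-drug dose plus five library-drug doses (not always all listed) in √10 steps, and values are duplicate-plate medians.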

[2] = tested on: EMC-BAC-2
Method in brief: as §1

[3] = tested on: LU99A
Method in brief: as §1

[4] = tested on: NCI-H1666
Method in brief: as §1

[5] = tested on: HCC-44
Method in brief: as §1

[6] = tested on: LK-2
Method in brief: as §1

[7] = tested on: LXF-289
Method in brief: as §1

[8] = tested on: RERF-LC-KJ
Method in brief: as §1

[9] = tested on: ChaGo-K-1
Method in brief: as §1

[10] = tested on: SW 900
Method in brief: as §1

[11] = tested on: LOU-NH91
Method in brief: as §1

[12] = tested on: HCC-366
Method in brief: as §1

[13] = tested on: NCI-H3122
Method in brief: as §1

[14] = tested on: EPLC-272H
Method in brief: as §1

[15] = tested on: NCI-H2126
Method in brief: as §1

[16] = tested on: NCI-H2405
Method in brief: as §1

[17] = tested on: NCI-H1975
Method in brief: as §1

[18] = tested on: HCC-78
Method in brief: as §1

[19] = tested on: HCC-827
Method in brief: as §1

[20] = tested on: NCI-H2085
Method in brief: as §1

[21] = tested on: LCLC-103H
Method in brief: as §1

Clc1ccc(Nc2nnc(Cc3ccncc3)c3ccccc23)cc1 [Vatalanib] + NC(=O)Nc1cc(-c2cccc(F)c2)sc1C(=O)N[C@H]1CCCNC1 [AZD7762] (partner 0.2 µM)
relative viability ([1]; first compound 0.04 µM): 0.269
relative viability ([1]; first compound 0.1265 µM): 0.229
relative viability ([1]; first compound 0.4 µM): 0.228
relative viability ([1]; first compound 1.265 µM): 0.259
relative viability ([1]; first compound 4 µM): 0.266
relative viability ([2]; first compound 0.04 µM): 1.05
relative viability ([2]; first compound 0.1265 µM): 0.991
relative viability ([2]; first compound 0.4 µM): 1.12
relative viability ([2]; first compound 4 µM): 1.15
relative viability ([3]; first compound 0.04 µM): 0.351
relative viability ([3]; first compound 0.1265 µM): 0.442
relative viability ([3]; first compound 0.4 µM): 0.345
relative viability ([3]; first compound 1.265 µM): 0.258
relative viability ([3]; first compound 4 µM): 0.287
relative viability ([4]; first compound 0.04 µM): 0.733
relative viability ([4]; first compound 0.1265 µM): 0.874
relative viability ([4]; first compound 0.4 µM): 0.855
relative viability ([4]; first compound 1.265 µM): 0.694
relative viability ([4]; first compound 4 µM): 0.762
relative viability ([5]; first compound 0.04 µM): 1.01
relative viability ([5]; first compound 0.1265 µM): 1.03
relative viability ([5]; first compound 0.4 µM): 0.959
relative viability ([5]; first compound 1.265 µM): 0.983
relative viability ([5]; first compound 4 µM): 1
relative viability ([6]; first compound 0.04 µM): 0.394
relative viability ([6]; first compound 0.1265 µM): 0.412
relative viability ([6]; first compound 0.4 µM): 0.496
relative viability ([6]; first compound 1.265 µM): 0.353
relative viability ([6]; first compound 4 µM): 0.446
relative viability ([7]; first compound 0.04 µM): 1.14
relative viability ([7]; first compound 0.1265 µM): 0.97
relative viability ([7]; first compound 0.4 µM): 1.21
relative viability ([7]; first compound 1.265 µM): 1.01
relative viability ([7]; first compound 4 µM): 1.03
relative viability ([8]; first compound 0.04 µM): 1.16
relative viability ([8]; first compound 0.1265 µM): 0.919
relative viability ([8]; first compound 0.4 µM): 1.05
relative viability ([8]; first compound 1.265 µM): 0.711
relative viability ([8]; first compound 4 µM): 0.749
relative viability ([9]; first compound 0.04 µM): 0.941
relative viability ([9]; first compound 0.1265 µM): 0.845
relative viability ([9]; first compound 0.4 µM): 0.88
relative viability ([9]; first compound 1.265 µM): 0.865
relative viability ([9]; first compound 4 µM): 0.876
relative viability ([10]; first compound 0.04 µM): 0.596
relative viability ([10]; first compound 0.1265 µM): 0.653
relative viability ([10]; first compound 0.4 µM): 0.567
relative viability ([10]; first compound 1.265 µM): 0.69
relative viability ([10]; first compound 4 µM): 0.6
relative viability ([11]; first compound 0.04 µM): 0.786
relative viability ([11]; first compound 0.1265 µM): 0.691
relative viability ([11]; first compound 0.4 µM): 0.756
relative viability ([11]; first compound 1.265 µM): 0.708
relative viability ([11]; first compound 4 µM): 0.686
relative viability ([12]; first compound 0.04 µM): 0.325
relative viability ([12]; first compound 0.1265 µM): 0.253
relative viability ([12]; first compound 0.4 µM): 0.32
relative viability ([12]; first compound 1.265 µM): 0.194
relative viability ([12]; first compound 4 µM): 0.226
relative viability ([13]; first compound 0.04 µM): 1.07
relative viability ([13]; first compound 0.1265 µM): 0.969
relative viability ([13]; first compound 0.4 µM): 1.02
relative viability ([13]; first compound 1.265 µM): 0.966
relative viability ([13]; first compound 4 µM): 0.995
relative viability ([14]; first compound 0.04 µM): 0.0728
relative viability ([14]; first compound 0.1265 µM): 0.167
relative viability ([14]; first compound 0.4 µM): 0.212
relative viability ([14]; first compound 1.265 µM): 0.216
relative viability ([14]; first compound 4 µM): 0.207
relative viability ([15]; first compound 0.04 µM): 0.994
relative viability ([15]; first compound 0.1265 µM): 0.99
relative viability ([15]; first compound 0.4 µM): 1.02
relative viability ([15]; first compound 1.265 µM): 0.995
relative viability ([15]; first compound 4 µM): 1.07
relative viability ([16]; first compound 0.04 µM): 0.799
relative viability ([16]; first compound 0.1265 µM): 0.694
relative viability ([16]; first compound 0.4 µM): 0.725
relative viability ([16]; first compound 4 µM): 0.696
relative viability ([17]; first compound 0.04 µM): 0.731
relative viability ([17]; first compound 0.1265 µM): 0.66
relative viability ([17]; first compound 0.4 µM): 0.59
relative viability ([17]; first compound 1.265 µM): 0.492
relative viability ([17]; first compound 4 µM): 0.568
relative viability ([18]; first compound 0.04 µM): 0.566
relative viability ([18]; first compound 0.1265 µM): 0.633
relative viability ([18]; first compound 0.4 µM): 0.59
relative viability ([18]; first compound 1.265 µM): 0.562
relative viability ([18]; first compound 4 µM): 0.547
relative viability ([19]; first compound 0.04 µM): 0.187
relative viability ([19]; first compound 0.1265 µM): 0.282
relative viability ([19]; first compound 1.265 µM): 0.183
relative viability ([19]; first compound 4 µM): 0.194
relative viability ([20]; first compound 0.04 µM): 1.12
relative viability ([20]; first compound 0.1265 µM): 1
relative viability ([20]; first compound 0.4 µM): 0.998
relative viability ([20]; first compound 1.265 µM): 0.862
relative viability ([20]; first compound 4 µM): 0.928
relative viability ([21]; first compound 0.04 µM): 0.797
relative viability ([21]; first compound 0.1265 µM): 0.714
relative viability ([21]; first compound 0.4 µM): 0.803
relative viability ([21]; first compound 1.265 µM): 0.806
relative viability ([21]; first compound 4 µM): 0.725
